Results: patent publication US20150031572A1, “MEANS AND METHODS FOR ASSESSING NEURONAL TOXICITY” (priority 2012, published 2015)
Structures can show the parent of a compound that is named as a salt. Marks after values point to notes of the source that are not given here.

Tests used:
[1] = rats exposed to sulcotrione; cited from earlier work
[2] = Plasma metabolite profiling (GC-MS, LC-MS, SPE-LC-MS) of rats dosed once daily over 28 days; treatment ratios versus untreated control; format: in vivo, rat; settings: for Adrenaline (Epi-nephrine), ratio versus control / Glutamate, ratio versus control / Serotonin (5-HT), ratio versus control: Table 7b
Method in brief: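 Male and female rats (5/sex/group) dosed once daily for 28 days; fasted anaesthetized animals bled retro-orbitally (EDTA plasma) on days 7, 14, 28, stored −80 °C under N2. Polar and lipid fractions profiled by GC-MS (derivatized), LC-MS/MRM; steroids by online SPE-LC-MS. Pool-normalized data; treatment ratios vs sex-matched controls, Welch test p-values.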

[3] = plasma, female rats, day 7, high dose
[4] = plasma, female rats, day 14, high dose, Table 7a
[5] = plasma, female rats, day 14, high dose
[6] = plasma, female rats, day 28, high dose, Table 7a
[7] = plasma, female rats, day 28, high dose

## CS(=O)(=O)c1ccc(C(=O)C2C(=O)CCCC2=O)c(Cl)c1 [sulcotrione]
[1]
  corneal lesions: corneal lesions that varied in severity from partial or hazy opacity to complete opacity

## Fc1ccc([C@@H]2CCNC[C@H]2COc2ccc3c(c2)OCO3)cc1 [Paroxetine hydrochloride]
[2]; plasma, female rats, day 7, high dose, Table 7a
  alpha-Tocopherol, ratio versus control: 1.08
[2]; [3]
  Adrenaline (Epi-nephrine), ratio versus control: 0.19*
  Glutamate, ratio versus control: 0.7*
  Serotonin (5-HT), ratio versus control: 0.09*
[2]; [4]
  4-Hydroxysphinganine (t18:0, Phytosphingosine), total, ratio versus control: 1.9*
  Threonine, ratio versus control: 1.65*
  alpha-Tocopherol, ratio versus control: 1.31*
[2]; [5]
  Adrenaline (Epi-nephrine), ratio versus control: 0.36*
  Glutamate, ratio versus control: 0.68*
  Serotonin (5-HT), ratio versus control: 0.07*
[2]; [6]
  4-Hydroxysphinganine (t18:0, Phytosphingosine), total, ratio versus control: 2.11*
  Threonine, ratio versus control: 1.4*
[2]; [7]
  Adrenaline (Epi-nephrine), ratio versus control: 0.89
  Glutamate, ratio versus control: 0.85
  Serotonin (5-HT), ratio versus control: 0.04*
[2]; rat, in vivo
  4-Hydroxysphinganine (t18:0, Phytosphingosine), total, ratio versus control: 1.99*
  Threonine, ratio versus control: 1.41*
  alpha-Tocopherol, ratio versus control: 1.32*
